# Data as given in patent publication US20240216401A1, “COMBINATION THERAPY BY USING AKR1C3-ACTIVATED COMPOUND WITH IMMUNE CHECKPOINT INHIBITOR” (OBI Pharma, Inc., priority 2021, published 2024).
# Where “and” joins values, the source holds several entries; their conditions need not be identical. Equal entries are not always repeated.
# Assays:
# HepG2 tumor = assay: Example 2: tumor volume, tumor weight and TGI in HepG2 tumor bearing humanized mice; assay type: in vivo, Mus musculus; settings: for mean tumor volume: mean±SEM; for tumor growth inhibition (TGI): Day 30 vs Day 0, alone or with anti-hPD-1 20 mg/kg
# Method: (§1) 1. Species: Mus musculus • Strain: Advanced immunodeficiency mouse. • (NOD.CgPrkdc^scid Il2rg) • Source: Trineo Biotechnology Co., LTD.
# (§2) Each group contains six mice. The human hepatocellular carcinoma cell line HepG2 were subcutaneously inoculated to the advanced immune-deficiency mice. Total of 42 mice were included in this study.
# 2.2. […] The subcutaneous injection volume was […].
# (§3) 3.1. […] The injection was performed using insulin syringe with the dosage of 0.3 mg/kg or 1 mg/kg and the injection volume was 5 mL/kg. […] The reference item was administered for G1. The procedure followed the standards of sample administration. The starting day of test item administration was denoted as the first experimental day (DO).
# (§4) 3.2. […] The injection was performed using insulin syringe with the dosage of 20 mg/kg and injection volume of 10 mL/kg. […] The procedure followed the standards of sample administration.
# The measurement was performed from the next day of the inoculation. The tumor volumes were measured and recorded twice a week (Mon., Thur.). Tumor volume was calculated by ellipsoid equation according to the records ((major axis×minor axis×minor axis)×(π/6)).
# Tumor volumes were used to calculate tumor growth inhibition (TGI) rates according to the following formula: TGI (%)=[1−(Ti−T0)/(Ci−C0)]×100, where Ti and Ci indicate the mean tumor volume in the treatment groups and vehicle group at the end of the experiment (Day 30). Whereas, T0 and C0 indicate the mean tumor volumes in the treatment group and vehicle group at the beginning of the experiment (Day 0).
# Mice were sacrificed by CO2 euthanasia at the end of the study duration, and the connective tissue around tumor was resected. The tumor samples were then weighed and cut equally into three sections if the tumor weight over 400 mg. The tumor tissue was prepared for the isolation of tumor-infiltrating lymphocytes (TILs). The rest of one section was fixed in 10% formaldehyde and embedded in paraffin; the other was stored at a temperature below −70° C.
# [1] = Example 2: body weight of HepG2 tumor bearing humanized mice; assay type: in vivo, Mus musculus; settings: for Body Weight: G2: OBI-3424 0.3 mg/kg, individual animal, 0.3 mg/kg
# Method: as §1, §2, §3, §4
# The measurement was performed from the next day of the inoculation. The animal body weights were measured and recorded twice per week.
# [2] = G2 OBI-3424 (0.3 mg/kg), D30, group Mean
# [3] = G2 OBI-3424 (0.3 mg/kg), D30, individual animals, 0.3 mg/kg
# [4] = G3 OBI-3424 (1 mg/kg), D30, individual animals, 1 mg/kg
smiles,measurement,setting,value
"C[C@H](OP(=O)(N1CC1)N1CC1)c1ccc([N+](=O)[O-])c(Oc2cccc(C(=O)N(C)C)c2)c1 [OBI-3424, (S)-1-(3-(3-N,N-dimethylaminocarbonyl)phenoxyl-4-mtrophenyl)-1-ethyl-N,N′-bis(ethylene)phosphoramidate]",dose relation of reduction in mean tumor volume (in words),"HepG2 tumor; Example 2, D30, OBI-3424 0.3 mg/kg and 1 mg/kg",dose-related reduction
same,mean tumor volume,"HepG2 tumor; Example 2, D30, OBI-3424 0.3 mg/kg IV, alone (G2) or with anti-hPD-1 20 mg/kg IP (G5)",716.44±31.12 mm^3
same,mean tumor volume,"HepG2 tumor; Example 2, D30, OBI-3424 1 mg/kg IV, alone (G3) or with anti-hPD-1 20 mg/kg IP (G6)",216.90±22.20 mm^3
same,mean tumor volume compared with vehicle (in words),"HepG2 tumor; Example 2, D30, vs vehicle (G1), OBI-3424 high-dose 1 mg/kg (G3), anti-hPD-1 20 mg/kg (G4), combinations G5-G7",significantly suppressed
same,tumor weight compared with vehicle (in words),"HepG2 tumor; Example 2, Day 30, OBI-3424 low-dose (G2), high-dose (G3), combinations G5-G7 vs vehicle (G1)",significantly suppressed
same,tumor growth inhibition (TGI),"HepG2 tumor; Example 2, high-dose OBI-3424 (1 mg/kg)",113.27%
same,tumor growth inhibition (TGI),"HepG2 tumor; Example 2, low-dose OBI-3424 (0.3 mg/kg)",27.82%
same,anti-tumor effect (conclusion in words),"HepG2 tumor; Example 2, HepG2 humanized mouse model, combination: high-dose OBI-3424",dose-dependent trend with anti-tumor activity
same,TGI,HepG2 tumor; G2 OBI-3424 (0.3 mg/kg),27.82%
same,Tumor volume,"HepG2 tumor; G2 OBI-3424 (0.3 mg/kg), D0, group Mean",293.3 mm^3
same,Tumor volume,"HepG2 tumor; G2 OBI-3424 (0.3 mg/kg), D0, individual animals, 0.3 mg/kg",280.0 mm^3 and 279.4 mm^3 and 226.0 mm^3 and 353.6 mm^3 and 317.7 mm^3 and 303.0 mm^3
same,Tumor volume,"HepG2 tumor; G2 OBI-3424 (0.3 mg/kg), D2, group Mean",300.8 mm^3
same,Tumor volume,"HepG2 tumor; G2 OBI-3424 (0.3 mg/kg), D2, individual animals, 0.3 mg/kg",283.9 mm^3 and 281.1 mm^3 and 230.6 mm^3 and 354.0 mm^3 and 321.0 mm^3 and 334.4 mm^3
same,Tumor volume,"HepG2 tumor; G2 OBI-3424 (0.3 mg/kg), D6, group Mean",307.8 mm^3
same,Tumor volume,"HepG2 tumor; G2 OBI-3424 (0.3 mg/kg), D6, individual animals, 0.3 mg/kg",289.0 mm^3 and 293.9 mm^3 and 241.0 mm^3 and 356.0 mm^3 and 330.5 mm^3 and 336.3 mm^3
same,Tumor volume,"HepG2 tumor; G2 OBI-3424 (0.3 mg/kg), D9, group Mean",388.7 mm^3
same,Tumor volume,"HepG2 tumor; G2 OBI-3424 (0.3 mg/kg), D9, individual animals, 0.3 mg/kg",375.6 mm^3 and 367.0 mm^3 and 395.2 mm^3 and 367.9 mm^3 and 388.9 mm^3 and 437.7 mm^3
same,Tumor volume,"HepG2 tumor; G2 OBI-3424 (0.3 mg/kg), D13, group Mean",509.0 mm^3
same,Tumor volume,"HepG2 tumor; G2 OBI-3424 (0.3 mg/kg), D13, individual animals, 0.3 mg/kg",569.5 mm^3 and 452.6 mm^3 and 528.9 mm^3 and 388.3 mm^3 and 590.7 mm^3 and 524.2 mm^3
same,Tumor volume,"HepG2 tumor; G2 OBI-3424 (0.3 mg/kg), D16, group Mean",617.1 mm^3
same,Tumor volume,"HepG2 tumor; G2 OBI-3424 (0.3 mg/kg), D16, individual animals, 0.3 mg/kg",714.1 mm^3 and 528.0 mm^3 and 714.4 mm^3 and 405.8 mm^3 and 749.1 mm^3 and 591.5 mm^3
same,Tumor volume,"HepG2 tumor; G2 OBI-3424 (0.3 mg/kg), D20, group Mean",702.3 mm^3
same,Tumor volume,"HepG2 tumor; G2 OBI-3424 (0.3 mg/kg), D20, individual animals, 0.3 mg/kg",808.4 mm^3 and 658.4 mm^3 and 854.0 mm^3 and 419.5 mm^3 and 751.9 mm^3 and 721.3 mm^3
same,Tumor volume,"HepG2 tumor; G2 OBI-3424 (0.3 mg/kg), D23, group Mean",744.1 mm^3
same,Tumor volume,"HepG2 tumor; G2 OBI-3424 (0.3 mg/kg), D23, individual animals, 0.3 mg/kg",889.2 mm^3 and 661.3 mm^3 and 890.1 mm^3 and 297.5 mm^3 and 842.6 mm^3 and 884.2 mm^3
same,Tumor volume,"HepG2 tumor; G2 OBI-3424 (0.3 mg/kg), D27, group Mean",717.3 mm^3
same,Tumor volume,"HepG2 tumor; G2 OBI-3424 (0.3 mg/kg), D27, individual animals, 0.3 mg/kg",926.9 mm^3 and 527.6 mm^3 and 909.1 mm^3 and 205.1 mm^3 and 848.5 mm^3 and 886.5 mm^3
same,Tumor volume,HepG2 tumor; [2],716.4 mm^3
same,Tumor weight,HepG2 tumor; [2],304.45 mg
same,Tumor volume,HepG2 tumor; [3],1012. mm^3 and 468.2 mm^3 and 882.8 mm^3 and 181.5 mm^3 and 850.4 mm^3 and 903.5 mm^3
same,Tumor weight,HepG2 tumor; [3],445.50 mg and 223.90 mg and 327.90 mg and 63.40 mg and 449.00 mg and 317.00 mg
same,TGI,HepG2 tumor; G3 OBI-3424 (1 mg/kg),113.27%
same,Tumor volume,"HepG2 tumor; G3 OBI-3424 (1 mg/kg), D0, individual animals, 1 mg/kg",290.8 mm^3 and 318.0 mm^3 and 286.8 mm^3
same,Tumor volume,"HepG2 tumor; G3 OBI-3424 (1 mg/kg), D2, individual animals, 1 mg/kg",295.5 mm^3 and 322.4 mm^3 and 292.9 mm^3
same,Tumor volume,"HepG2 tumor; G3 OBI-3424 (1 mg/kg), D6, individual animals, 1 mg/kg",297.0 mm^3 and 328.4 mm^3 and 304.4 mm^3
same,Tumor volume,"HepG2 tumor; G3 OBI-3424 (1 mg/kg), D9, individual animals, 1 mg/kg",337.5 mm^3 and 468.5 mm^3 and 334.0 mm^3
same,Tumor volume,"HepG2 tumor; G3 OBI-3424 (1 mg/kg), D13, individual animals, 1 mg/kg",341.3 mm^3 and 492.3 mm^3 and 362.5 mm^3
same,Tumor volume,"HepG2 tumor; G3 OBI-3424 (1 mg/kg), D16, individual animals, 1 mg/kg",359.9 mm^3 and 556.8 mm^3 and 465.2 mm^3
same,Tumor volume,"HepG2 tumor; G3 OBI-3424 (1 mg/kg), D20, individual animals, 1 mg/kg",345.0 mm^3 and 552.1 mm^3 and 465.2 mm^3
same,Tumor volume,"HepG2 tumor; G3 OBI-3424 (1 mg/kg), D23, individual animals, 1 mg/kg",260.7 mm^3 and 544.3 mm^3 and 419.2 mm^3
same,Tumor volume,"HepG2 tumor; G3 OBI-3424 (1 mg/kg), D27, individual animals, 1 mg/kg",246.4 mm^3 and 426.0 mm^3 and 295.9 mm^3
same,Tumor weight,"HepG2 tumor; G3 OBI-3424 (1 mg/kg), D30, group Mean",84.40 mg
same,Tumor volume,HepG2 tumor; [4],185.2 mm^3 and 295.5 mm^3 and 215.0 mm^3
same,Tumor weight,HepG2 tumor; [4],62.40 mg and 101.90 mg and 105.20 mg and 90.30 mg and 69.80 mg and 76.80 mg
same,body weight (in words),"[1]; Example 2, until Day 30",Body weight loss was not seen
same,Body Weight,[1]; D2 after test item administration,22.12 g
same,Body Weight,[1]; D6 after test item administration,24.82 g
same,Body Weight,[1]; D9 after test item administration,20.84 g and 24.58 g
